Earlier results on one molecule are cited in patent US4800194A, “Acylphosphorotriamides useful as lipid-altering agents” (priority 1986, dated 1989).

Data set [1] has as its system pseudocholinesterase. To be noted: accidental poisoning; cited from earlier work.
The conditions of data set [2]: accidental poisoning; cited from earlier work.

Regarding `CCOP(=S)(OCC)Oc1ccc([N+](=O)[O-])cc1` [parathione], the “blood plasma level of pseudocholinesterase” value in data set [1] is listed as “markedly decreased”. Besides, in data set [2], the HDL entry is listed as “increased” and the “blood plasma level of LDL” value is “markedly decreased”.
